Results on 33 compounds are retold here after patent publication US20250376461A1, “INDAZOLE DERIVATIVES FOR TREATING TRPM3-MEDIATED DISORDERS” (Katholieke Universiteit Leuven, priority 2022, published 2025).

Molecules are shown by their SMILES.

Broadly, the IC50 is the concentration that gives 50% inhibition. A higher IC50 goes with weaker potency.

The target in the assay is T1, mouse TRPM3α2 (mTRPM3) ion channel (Mus musculus, UniProt J9SQF3).
T1 construct: expressed in transfected cells; host or cells: flip-in HEK293
T1 sequence (J9SQF3 1-1709 isoform J9SQF3-12): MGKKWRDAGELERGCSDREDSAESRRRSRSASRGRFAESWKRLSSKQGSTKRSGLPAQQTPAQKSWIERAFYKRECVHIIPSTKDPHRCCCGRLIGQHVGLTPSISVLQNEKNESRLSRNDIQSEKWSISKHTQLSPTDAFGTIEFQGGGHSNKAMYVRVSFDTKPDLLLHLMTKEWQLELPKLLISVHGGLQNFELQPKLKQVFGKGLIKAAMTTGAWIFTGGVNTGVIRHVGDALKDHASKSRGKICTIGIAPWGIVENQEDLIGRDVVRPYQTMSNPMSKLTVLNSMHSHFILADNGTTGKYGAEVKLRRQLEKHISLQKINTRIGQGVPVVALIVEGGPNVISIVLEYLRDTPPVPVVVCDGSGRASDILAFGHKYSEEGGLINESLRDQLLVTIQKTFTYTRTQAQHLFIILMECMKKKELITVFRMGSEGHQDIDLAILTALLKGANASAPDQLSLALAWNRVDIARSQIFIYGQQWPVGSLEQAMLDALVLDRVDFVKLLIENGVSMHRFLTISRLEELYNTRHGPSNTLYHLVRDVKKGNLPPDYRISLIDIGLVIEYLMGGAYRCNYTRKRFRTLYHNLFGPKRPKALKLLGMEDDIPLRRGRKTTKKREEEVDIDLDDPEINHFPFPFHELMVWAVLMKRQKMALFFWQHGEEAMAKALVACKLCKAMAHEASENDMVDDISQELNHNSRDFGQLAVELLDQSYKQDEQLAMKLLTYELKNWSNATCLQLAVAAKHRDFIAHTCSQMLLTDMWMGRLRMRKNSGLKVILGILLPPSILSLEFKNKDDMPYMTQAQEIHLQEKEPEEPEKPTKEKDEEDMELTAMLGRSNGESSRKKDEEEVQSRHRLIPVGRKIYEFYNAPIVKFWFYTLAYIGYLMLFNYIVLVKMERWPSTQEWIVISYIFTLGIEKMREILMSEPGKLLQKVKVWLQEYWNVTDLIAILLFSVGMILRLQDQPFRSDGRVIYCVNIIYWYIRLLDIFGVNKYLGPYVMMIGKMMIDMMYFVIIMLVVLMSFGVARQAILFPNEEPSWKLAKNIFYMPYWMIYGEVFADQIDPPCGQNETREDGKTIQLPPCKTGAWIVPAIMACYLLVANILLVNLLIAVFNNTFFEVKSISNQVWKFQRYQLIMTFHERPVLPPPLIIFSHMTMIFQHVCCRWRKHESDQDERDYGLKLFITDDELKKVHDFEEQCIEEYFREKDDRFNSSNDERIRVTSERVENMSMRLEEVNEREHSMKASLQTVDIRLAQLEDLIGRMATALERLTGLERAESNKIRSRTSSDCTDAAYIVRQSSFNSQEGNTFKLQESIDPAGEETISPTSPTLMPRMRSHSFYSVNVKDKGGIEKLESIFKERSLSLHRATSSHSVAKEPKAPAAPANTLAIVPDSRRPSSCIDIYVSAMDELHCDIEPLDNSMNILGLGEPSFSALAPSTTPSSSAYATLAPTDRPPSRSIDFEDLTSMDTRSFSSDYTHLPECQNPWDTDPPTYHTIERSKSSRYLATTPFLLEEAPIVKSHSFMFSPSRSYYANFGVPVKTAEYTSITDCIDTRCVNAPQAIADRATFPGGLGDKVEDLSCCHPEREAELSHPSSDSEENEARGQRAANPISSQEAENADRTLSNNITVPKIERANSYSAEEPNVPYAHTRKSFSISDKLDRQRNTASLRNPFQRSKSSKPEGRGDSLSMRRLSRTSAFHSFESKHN
In words: TRPM3 ion channel driven Ca2+ uptake, Fluo-4 AM assay, mTRPM3alpha2 overexpressing flip-in HEK293 cells stimulated with pregnenolone sulfate (50 μM). The assay is classed as cell-based. As to conditions: mTRPM3 overexpressing HEK293 cells stimulated with pregnenolone sulfate (50 μM), activity ranges A, B, C. An outline of the steps:
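Flip-in HEK293 cells overexpressing mTRPM3α2, loaded with Fluo-4 AM, added at ±2000 cells/well to plates holding compound plus 50 μM pregnenolone sulfate in Ca2+-containing Krebs buffer. Fluorescence (ex 485/em 535 nm) read immediately. Percent inhibition normalised between vehicle and positive-control inhibitor; IC50 derived.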
For `Cc1ncsc1COc1ccc2nn(C)c(C(=O)NC(C)(C)CO)c2c1` [Cpd 005, N-(1-hydroxy-2-methylpropan-2-yl)-2-methyl-5-[(4-methyl-1,3-thiazol-5-yl)methoxy]-2H-indazole-3-carboxamide], the IC50 was 1 to 20 µM.

In turn, `Cc1ncsc1COc1ccc2nn(C)c(C(=O)NC3COCC3O)c2c1` (single isomer, unassigned) [Cpd 080 - Dia1] returned an IC50 of 1 to 20 µM.

With `Cn1nc2ccc(OCc3ccccn3)cc2c1C(=O)NC(C)(CO)CO` [Cpd 127, N-(1,3-dihydroxy-2-methylpropan-2-yl)-2-methyl-5-[(pyridin-2-yl)methoxy]-2H-indazole-3-carboxamide], the IC50 was less than 1 µM.

The compound `CNC(=O)C1(NC(=O)c2c3cc(OCc4cccnc4C(F)(F)F)ccc3nn2C)CCOC1` (single isomer, unassigned) [Cpd 183 - En1, 2-methyl-N-[3-(methylcarbamoyl)oxolan-3-yl]-5-{[2-(trifluoromethyl)pyridin-3-yl]methoxy}-2H-indazole-3-carboxamide] registered an IC50 of less than 1 µM.

As to `Cn1nc2ccc(OCc3ccccn3)cc2c1C(=O)NC1CCNCC1(F)F` (single isomer, unassigned) [Cpd 128 - En1], the IC50 lay in the range of 1 to 20 µM.

Compound `Cc1ncc(COc2ccc3nn(C)c(C(=O)NC4(CO)CCC4)c3c2)s1` [Cpd 108, N-[1-(hydroxymethyl)cyclobutyl]-2-methyl-5-[(2-methyl-1,3-thiazol-5-yl)methoxy]-2H-indazole-3-carboxamide] registered an IC50 of 1 to 20 µM.

Regarding `Cn1nc2ccc(OCc3ccccc3)cc2c1C(=O)O` [Cpd 197, 5-(benzyloxy)-2-methyl-2H-indazole-3-carboxylic acid], the 50% inhibitory concentration (IC50) is 1 to 20 µM.

The compound `Cc1ncc(COc2ccc3nn(C)c(C(=O)NC(C)(CO)CO)c3c2)o1` [Cpd 131, N-(1,3-dihydroxy-2-methylpropan-2-yl)-2-methyl-5-[(2-methyl-1,3-oxazol-5-yl)methoxy]-2H-indazole-3-carboxamide] returned an IC50 of 1 to 20 µM.

As to `Cc1ncsc1COc1ccc2nn(C)c(C(=O)NC3(C(N)=O)CCOCC3)c2c1` [Cpd 107, N-(4-carbamoyloxan-4-yl)-2-methyl-5-[(4-methyl-1,3-thiazol-5-yl)methoxy]-2H-indazole-3-carboxamide], the IC50 was in the range of 1 to 20 µM.

In turn, `Cn1nc2ccc(OCc3cccnc3)cc2c1C(=O)NC1(CO)CCNC1=O` (single isomer, unassigned) [Cpd 180 - En1] registered an IC50 of less than 1 µM.

`Cn1nc2ccc(OCc3ccccn3)cc2c1C(=O)NC1CNCC1C(F)(F)F` (single isomer, unassigned) [Cpd 246 - En1] gave an IC50 greater than 20 µM.

`Cn1nc2ccc(OCc3ccccn3)cc2c1C(=O)NC(CO)CC(F)(F)F` (single isomer, unassigned) [Cpd 226-En2] showed an IC50 greater than 20 µM.

Regarding `Cc1ccc(COc2ccc3nn(C)c(C(=O)NC(C)(CO)C(N)=O)c3c2)nc1` (single isomer, unassigned) [Cpd 181 - En1], the IC50 was greater than 20 µM.

Turning to `Cn1nc2ccc(OCC3CCOCC3)cc2c1C(=O)NC(C)(CO)C(N)=O` (single isomer, unassigned) [Cpd 158 - En1], the IC50 lay within 1 to 20 µM.

Turning to `Cn1nc2ccc(OCc3ccccc3C(F)F)cc2c1C(=O)NC1(C(N)=O)CCOC1` (single isomer, unassigned) [Cpd 175 - En2], the IC50 was in the range of 1 to 20 µM.

As for `Cn1nc2ccc(OCc3ccccc3C(F)F)cc2c1C(=O)NC1(CO)CCNC1=O` (single isomer, unassigned) [Cpd 176 - En1], the IC50 is less than 1 µM.

Turning to `Cn1nc2ccc(OCc3cccnc3C(F)(F)F)cc2c1C(=O)NC(C)(CO)CC(F)F` (single isomer, unassigned) [Cpd 202 - En1], the IC50 is less than 1 µM.

Turning to `Cn1nc2ccc(OCc3ccccn3)cc2c1C(=O)NC(CO)C(C(F)(F)F)C(F)(F)F` (single isomer, unassigned) [Cpd 227 - En2], the IC50 is greater than 20 µM.

Regarding `CN1CC(NC(=O)c2c3cc(OCc4cccnc4C(F)(F)F)ccc3nn2C)C(F)(F)C1` (stereo not drawn) [Cpd 081, N-(4,4-difluoro-1-methylpyrrolidin-3-yl)-2-methyl-5-{[2-(trifluoromethyl)pyridin-3-yl]methoxy}-2H-indazole-3-carboxamide], the half-inhibitory concentration (IC50) lay within 1 to 20 µM.

On to `Cn1nc2ccc(OCc3ccccc3F)cc2c1C(=O)NC(C)(CO)CC(F)F` (single isomer, unassigned) [Cpd 203 - En1], for which the concentration for half-maximal inhibition (IC50) is less than 1 µM.

`Cn1nc2ccc(OCc3ccccn3)cc2c1C(=O)NC(CO)C(F)(F)F` (single isomer, unassigned) [Cpd 254 - En2] had a half-inhibitory concentration (IC50) greater than 20 µM.

`Cn1nc2ccc(OCc3ccccn3)cc2c1C(=O)NCC(F)(F)F` [Cpd 204, 2-methyl-5-[(pyridin-2-yl)methoxy]-N-(2,2,2-trifluoroethyl)-2H-indazole-3-carboxamide] yielded an IC50 greater than 20 µM.

With `Cn1nc2ccc(OCc3cccnc3C(F)(F)F)cc2c1C(=O)N[C@@H]1COC[C@@H]1O` (single isomer, unassigned) [Cpd 010 - Dia2], the IC50 lay within 1 to 20 µM.

`CNC(=O)C(C)(CO)NC(=O)c1c2cc(OCc3scnc3C)ccc2nn1C` (single isomer, unassigned) [Cpd 185 - En2, 3-hydroxy-N,2-dimethyl-2-({2-methyl-5-[(4-methyl-1,3-thiazol-5-yl)methoxy]-2H-indazol-3-yl}formamido)propanamide] had an IC50 of less than 1 µM.

`Cn1nc2ccc(OCC3CCC3)cc2c1C(=O)NC(C)(CO)C(N)=O` (single isomer, unassigned) [Cpd 173 - En2] gave an IC50 of 1 to 20 µM.

`Cn1nccc1COc1ccc2nn(C)c(C(=O)NC3(C(N)=O)COC3)c2c1` [Cpd 030, N-(3-carbamoyloxetan-3-yl)-2-methyl-5-[(1-methyl-1H-pyrazol-5-yl)methoxy]-2H-indazole-3-carboxamide]: the 50% inhibitory concentration (IC50) was greater than 20 µM.

On to `Cc1ncsc1COc1ccc2nn(C)c(C(=O)NC3CNCC(F)(F)C3)c2c1` (single isomer, unassigned) [Cpd 213 - En2], for which the IC50 is greater than 20 µM.

The compound `Cn1ccc(C(C)(CO)NC(=O)c2c3cc(OCc4ccccn4)ccc3nn2C)n1` (single isomer, unassigned) [Cpd 239 - En1] displayed a half-inhibitory concentration (IC50) greater than 20 µM.

In turn, `Cn1nc2ccc(OCc3ccccn3)cc2c1C(=O)NC(CO)CC(N)=O` (single isomer, unassigned) [Cpd 240 - En1, 4-hydroxy-3-({2-methyl-5-[(pyridin-2-yl)methoxy]-2H-indazol-3-yl}formamido)butanamide] gave an IC50 greater than 20 µM.

In turn, `Cc1ccc(COc2ccc3nn(C)c(C(=O)NC4(CO)CCNC4=O)c3c2)cn1` (single isomer, unassigned) [Cpd 169 - En1] gave an IC50 greater than 20 µM.

Consider `CCn1nc2ccc(OCc3ccccn3)cc2c1C(=O)NC(C)(CO)C(N)=O` (single isomer, unassigned) [Cpd 188 - En2, 2-({2-ethyl-5-[(pyridin-2-yl)methoxy]-2H-indazol-3-yl}formamido)-3-hydroxy-2-methylpropanamide], for which the IC50 was less than 1 µM.

On to `Cn1nccc1COc1ccc2nn(C)c(C(=O)NC(C)(CO)C(N)=O)c2c1` (single isomer, unassigned) [Cpd 154 - En1], for which the IC50 was greater than 20 µM.

`Cn1nc2ccc(OCc3ccccn3)cc2c1C(=O)NCC(O)CC(F)(F)F` (single isomer, unassigned) [Cpd 245 - En2]: the IC50 was greater than 20 µM.
